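Where inhibition never reached the appropriate level, the endpoint shown equals the highest concentration tested. Otherwise, values were interpolated linearly from a five-concentration, 48-hour dose response in 96-well plates. The concentration for 50% growth inhibition is given as GI50. TGI marks complete inhibition of growth.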
Test system: MDA-MB-468 breast
Test: inhibition of tumour cell growth, NCI panel, 48 h

Compound: Oc1ccc(-c2nnc(SCc3ccc(O)c4ncccc34)n2-c2ccccc2)cc1
- GI50: 421 nM
- TGI: 2830 nM

Compound: CC#CC(=O)N1CC[C@@H](n2c(=O)n(-c3ccc(Oc4ccccc4)cc3)c3c(N)ncnc32)C1
- GI50: 10500 nM
- TGI: 60200 nM

Compound: COc1cc(N2CCC(N3CCN(C)CC3)CC2)ccc1Nc1ncc(Cl)c(Nc2ccccc2S(=O)(=O)C(C)C)n1
- GI50: 483 nM
- TGI: 1780 nM

Compound: Cc1nn(C)c2cc(N(C)c3ccnc(Nc4cccc(S(N)(=O)=O)c4)n3)ccc12
- GI50: 4190 nM
- TGI: 13700 nM

Compound: Cc1cc2nc(C(Cl)Cl)nc(-c3ccccc3)n2n1
- GI50: 1810 nM
- TGI: 4450 nM

Compound: CN1CCN(CC(=O)N2c3cccc4cccc(c34)N(C(=O)CN3CCN(C)CC3)C2c2cn(-c3ccccc3)nc2-c2cccc([N+](=O)[O-])c2)CC1
- GI50: 1610 nM
- TGI: 3060 nM

Compound: Clc1ccc2c(NCCNc3nc(N4CCCC4)nc4ccccc34)ccnc2c1
- GI50: 1200 nM
- TGI: 3430 nM

Compound: CCN1CCN(c2ccc(Nc3ncc4ccc5ncn(C(C)C)c5c4n3)nc2)CC1
- GI50: 177 nM
- TGI: 444 nM

Compound: COc1cc(C)c(NC(=O)CN(C)C)cc1Nc1nc(Nc2cccc(F)c2C(N)=O)c2cc[nH]c2n1
- GI50: 263 nM
- TGI: 1210 nM

Compound: O=S(=O)(Nc1ccccn1)c1ccc(N=Nc2ccc(O)c3ncccc23)cc1
- GI50: 2230 nM
- TGI: 8440 nM

Compound: Nc1c2ccccc2nc2ccccc12 (tested in a mixture with another compound)
- GI50: 1070 nM
- TGI: 3210 nM

Compound: Fc1cccc(-c2[nH]nc3nc(Nc4cccnc4)sc23)c1
- GI50: 360 nM
- TGI: 3000 nM

Compound: O=c1cc(-c2cccc(OCc3ccccc3)c2)[nH]c2cc3c(cc12)OCO3
- GI50: 9590 nM
- TGI: > 100000 nM

Compound: C[C@@H]1OCC2(CCN(c3cnc(Sc4ccnc(N)c4Cl)c(N)n3)CC2)[C@@H]1N
- GI50: 14800 nM
- TGI: > 100000 nM

Compound: O=C(O)c1ccccc1Nc1ccc2nnc(-c3ccncc3)n2n1
- GI50: 1960 nM
- TGI: 4590 nM

Compound: Oc1c(CN2CCN(c3ccccc3F)CC2)cc(Br)c2cccnc12
- GI50: 673 nM
- TGI: 6840 nM

Compound: COc1ccc2nc3ccccc3c(NCc3ccc(C)cc3)c2c1
- GI50: 1810 nM
- TGI: 3920 nM

Compound: C=C(C)[C@@H]1CC[C@]2(C(N)=O)CC[C@]3(C)[C@H](CC[C@@H]4[C@@]5(C)C/C(=C/c6cccnc6)[C@H](O)C(C)(C)[C@@H]5CC[C@]43C)[C@@H]12
- GI50: 4050 nM
- TGI: > 100000 nM

Compound: C=CCSSc1ncnc2c1ncn2C1OC(CO)C(O)C1O (stereo not drawn)
- GI50: 217 nM
- TGI: 4460 nM

Compound: C=C1C(=O)O[C@H]2[C@H]1CC/C(COC(=O)NCc1cc(OC)cc(OC)c1)=C\CC[C@@]1(C)O[C@@H]21
- GI50: 580 nM
- TGI: 2330 nM

Compound: N#Cc1nn(-c2cc(=O)[nH]c3ccc(Br)cc23)c(N)c1C#N
- GI50: > 100000 nM
- TGI: > 100000 nM

Compound: C/C(=C\c1ccn(-c2ccc(N)cc2F)n1)[C@@H]1C[C@@H]2O[C@]2(C)CCC[C@H](C)[C@H](O)[C@@H](C)C(=O)C(C)(C)[C@@H](O)CC(=O)O1
- GI50: 26.3 nM
- TGI: 300 nM

Compound: CCOCCOC[C@H]1CCCN(c2ccnc3sc(C(N)=O)c(N)c23)C1
- GI50: 3440 nM
- TGI: > 100000 nM

Compound: CCN(CC)CC[n+]1cc2cc(OC)c(OC)cc2c2ccc3cc4c(cc3c21)OCO4
- GI50: 241 nM
- TGI: 1090 nM

Reference: PubChem BioAssay (NCI)
